According to PubChem BioAssay (NCI):
“And” between values parts separate entries of the source, which are not always exact repeats. Identical values can stand only once.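 All cell lines were grown in 96-well plates and treated with compound for 48 hours. At the GI50, growth is halved. TGI marks complete inhibition of growth.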

How the values were obtained:
Assay in all cases: NCI anticancer screen, dose series, 48 h
SK-OV-3 ovarian = tested on: SK-OV-3 ovarian
NCI-H23 lung = tested on: NCI-H23 lung
U251 CNS = tested on: U251 CNS
KM12 colon = tested on: KM12 colon
SN12C renal = tested on: SN12C renal
NCI-H522 lung = tested on: NCI-H522 lung
COLO 205 colon = tested on: COLO 205 colon
HOP-92 NSCLC = tested on: HOP-92 NSCLC
SF-539 CNS = tested on: SF-539 CNS
HCC-2998 colon = tested on: HCC-2998 colon

Row | Structure (SMILES) | GI50 (SK-OV-3 ovarian) | TGI (SK-OV-3 ovarian) | GI50 (NCI-H23 lung) | TGI (NCI-H23 lung) | GI50 (U251 CNS) | TGI (U251 CNS) | GI50 (KM12 colon) | TGI (KM12 colon) | GI50 (SN12C renal) | TGI (SN12C renal) | GI50 (NCI-H522 lung) | GI50 (COLO 205 colon) | TGI (COLO 205 colon) | GI50 (HOP-92 NSCLC) | TGI (HOP-92 NSCLC) | TGI (SF-539 CNS) | TGI (NCI-H522 lung) | TGI (HCC-2998 colon) | GI50 (SF-539 CNS) | GI50 (HCC-2998 colon)
1 | CN1C(=O)/C(=C/c2c(Cl)n(C)c3ccccc23)c2ccccc21 | 4.84 µM and 1.57 µM | 2.91 µM | 1.92 µM and 1.56 µM | 5.96 µM and 2.94 µM | 3.7 µM and 1.73 µM | 3.16 µM | 3.34 µM and 1.31 µM | 3.49 µM | 1.82 µM | 9.33 µM | 5.12 µM | 4.59 µM and 0.485 µM | 1.63 µM | 1.8 µM | 3.34 µM |  |  |  |  | 
2 | CCCO/S(=N\S(=O)(=O)c1ccccc1)c1ccccc1[N+](=O)[O-] (stereo not drawn) |  | > 100 µM |  | > 100 µM |  | > 100 µM |  | > 100 µM |  | > 100 µM |  |  | > 100 µM |  |  | > 100 µM | > 100 µM | > 100 µM |  | 
3 | CCOc1ccncc1[N+](=O)[O-] |  | > 100 µM |  | > 100 µM |  | > 100 µM |  | > 100 µM |  | > 100 µM |  |  |  |  |  | > 100 µM | > 100 µM |  |  | 
4 | O=C(/C=C/c1ccccc1Cl)NC1C=Nc2ccc([N+](=O)[O-])cc2NC1 (stereo not drawn) |  | > 100 µM |  |  |  | > 100 µM |  | > 100 µM |  | > 100 µM |  |  | > 100 µM |  |  | > 100 µM | > 100 µM | > 100 µM |  | 
5 | CCC1CCc2c(c(=O)oc3c2cc(OC)c2cccc(OC)c23)C1 (stereo not drawn) |  | > 100 µM |  | > 100 µM |  | > 100 µM |  | > 100 µM |  | > 100 µM |  |  | > 100 µM |  |  | > 100 µM | > 100 µM | > 100 µM |  | 
6 | COc1c[c]([Hg][O]C(C)=O)c(OC)c(NC(=O)CC(C)=O)[c]1[Hg][O]C(C)=O | 18.6 µM | 32.7 µM | 11.6 µM | 17.9 µM | 12.6 µM | 27.8 µM | > 43.2 µM | > 62.1 µM | 13.7 µM | 27.8 µM |  | 2.37 µM |  |  |  | 28.1 µM | 0.154 µM | 30.1 µM | 12.6 µM | 15.8 µM
7 | CCn1c(=O)c2c(=O)c3c4c(oc3oc2c2ccccc21)C(=O)c1ccccc1C4=O | > 100 µM | > 100 µM | > 48.9 µM | > 100 µM | > 27.1 µM | > 100 µM | > 100 µM | > 100 µM | > 100 µM | > 100 µM | > 100 µM | > 100 µM | > 100 µM |  |  | > 100 µM | > 100 µM | > 100 µM | 3.32 µM | > 100 µM
8 | Cc1nc([N+](=O)[O-])cn1CC(=N)N |  |  |  | > 100 µM |  | > 100 µM |  |  |  | > 100 µM |  |  | > 100 µM |  |  | > 100 µM |  | > 100 µM |  | 
9 | CCOP(=O)(OCC)OC1C=CC2CCC1C2 (stereo not drawn) |  | > 100 µM |  | > 100 µM |  | > 100 µM |  | > 100 µM |  | > 100 µM |  |  | > 100 µM |  |  | > 100 µM | > 100 µM | > 100 µM |  | 
10 | COc1ccc(CCNC(=O)c2ccc(NC3=C(Cl)C(=O)N(Cc4ccccc4)C3=O)cc2)cc1OC | 35.8 µM | > 100 µM | 2.01 µM | 4.46 µM | 32.8 µM | > 100 µM | 23.5 µM | > 100 µM | 23.9 µM | > 100 µM | 4.74 µM | 3.94 µM | > 100 µM | 2.22 µM | 5.75 µM | 70.5 µM | 89.9 µM |  | 23.9 µM | 
11 | COc1ccc(O)c(C(=O)c2ccc(C(=O)N[C@H]3CCCNC[C@@H]3NC(=O)c3ccncc3)cc2)c1F | 5.57 µM | > 25 µM | 2.63 µM | > 25 µM | 8.12 µM | > 25 µM | 3.1 µM | > 16.5 µM | 3.61 µM | > 25 µM | 7.69 µM | > 25 µM | > 25 µM |  |  | 7.68 µM | > 25 µM | > 25 µM | 0.624 µM | 9.74 µM
12 | c1ccc2nc3c(nc2c1)sc1ccccc13 |  | 29.5 µM |  | 71.1 µM |  | 34.1 µM |  | > 100 µM |  | > 100 µM |  |  | > 100 µM |  |  | 30.9 µM | > 100 µM | > 100 µM |  | 
13 | O=CN1CCN(CC(O)CN2CCCCC2)CC1 (stereo not drawn) |  | > 100 µM |  | > 100 µM |  | > 100 µM |  | > 100 µM |  | > 100 µM |  |  | > 100 µM |  |  |  | > 100 µM |  |  | 
14 | CCCN1CN(C(C(=O)N[C@@H]2C(=O)N3C2SC(C)(C)C3C(=O)O)c2ccc(O)cc2)CSC1=S (stereo partly drawn) |  | > 100 µM |  | > 100 µM |  | > 100 µM |  | > 100 µM |  | > 100 µM |  |  | > 100 µM |  | > 100 µM | > 100 µM | 83.6 µM |  |  | 
